In patent US20140220132A1, “Pharmaceutical Formulation Comprising Compounds of the Jasmonate Family” (priority 2011, published 2014):

Assay: GC/MS analysis of incorporation of methyl jasmonate into nano carriers (inclusion complexes)
Type: physicochemical
Settings: determined by GC
Description: The following analysis were performed with GC/MS (gas chromatography/mass spectrometry), showing possible breakages of the elements that are included in the jasmonate family and also inclusion of such elements in several nano carriers such as dendrimers and CDs for comparison of analytical behavior. Used dendrimers was PAMAM (poly amide amine). Cyclodextrin was used as β-cyclodextrin.
Preparation of inclusion complexes was performed according to Rajewski R A, Stella V J pharmaceutical applications of cyclodextrins. 2. In delivering the in vivo drug. J. Pharm Sci 1996; 85 (11):1142-69. Inclusion compounds, or nano/micro carriers with jasmonates, can be prepared through mixing a different concentration from zero from one or more jasmonate compounds with up to a molar proportion equivalent to the host molecule. The preparation process also includes mixing the compound resulting from metabolism of the element of the jasmonate family in a water solution or other solution with acceptable pharmaceutical salts. The resulting solution is agitated until total dissolution of components in solvent. The mixing time is of some hours until the mixture reaches thermodynamic balance. […]

In the case of `CC/C=C\CC1C(=O)CCC1CC(=O)OC` (centres unmarked) [methyl jasmonate], the “percentage regarding incorporation of methyl jasmonate within PAMAM dendrimers” value (carrier PAMAM (poly amide amine) dendrimers) is reported as “around 95%” and the “percentage regarding incorporation of methyl jasmonate within β-CD” value (carrier β-cyclodextrin) is reported as 98-99%.
